Assay results: US20240025883A1, “PYRIMIDIN-2-YL SULFONAMIDE DERIVATIVES” (Hoffmann-La Roche Inc., priority 2021, published 2024)
pIC50: −log10 of the molar value.

Molecular target: human GPR17 short isoform (Homo sapiens (Human), UniProt Q13304)
Assay: GPR17 cAMP assay (hGPR17 cAMP, antagonist mode against EC80 of MDL29,951)
Format: cell-based
Settings: CHO-K1 cells stably expressing human GPR17 short isoform; EC80 of agonist MDL29,951; forskolin 15 μM
Procedure, shortened: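 CHO-K1 cells stably expressing untagged human GPR17 short isoform, 10,000/well in HBSS/10 mM HEPES/0.1% BSA pH 7.4. Compounds added with EC80 MDL29,951 and 0.5 mM IBMX, then 15 μM forskolin 5 min later, 30 min at room temperature; cAMP by TR-FRET, normalized to reference antagonist, sigmoidal fit.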

Sequence of human GPR17 short isoform (Q13304 29-367): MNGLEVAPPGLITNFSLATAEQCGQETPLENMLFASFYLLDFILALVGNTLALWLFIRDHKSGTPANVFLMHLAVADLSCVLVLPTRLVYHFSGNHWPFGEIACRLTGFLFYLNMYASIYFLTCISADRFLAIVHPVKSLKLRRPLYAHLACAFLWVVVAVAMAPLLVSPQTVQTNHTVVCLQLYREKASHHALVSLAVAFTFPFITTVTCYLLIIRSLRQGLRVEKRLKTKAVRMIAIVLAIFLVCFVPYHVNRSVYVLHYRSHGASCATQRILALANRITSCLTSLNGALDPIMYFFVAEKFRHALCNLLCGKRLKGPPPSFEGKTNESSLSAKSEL

Structure (SMILES) | pIC50
COc1nc(NS(=O)(=O)c2c[nH]c3nc(Br)ccc23)nc(OC)c1CC(F)F [Example 111, 6-bromo-N-[5-(2,2-difluoroethyl)-4,6-dimethoxy-pyrimidin-2-yl]-1H-pyrrolo[2,3-b]pyridine-3-sulfonamide] | 7.89
COc1nc(NS(=O)(=O)c2c[nH]c3nc(Br)ccc23)nc(OC)c1CCC(F)F [Example 112, 6-bromo-N-[5-(3,3-difluoropropyl)-4,6-dimethoxy-pyrimidin-2-yl]-1H-pyrrolo[2,3-b]pyridine-3-sulfonamide] | 7.80
COc1nc(NS(=O)(=O)c2c[nH]c3nc(Br)ccc23)nc(OC)c1CCC#N [Example 113, 6-bromo-N-[5-(2-cyanoethyl)-4,6-dimethoxy-pyrimidin-2-yl]-1H-pyrrolo[2,3-b]pyridine-3-sulfonamide] | 7.68
COc1nc(NS(=O)(=O)c2c[nH]c3nc(Br)ccc23)nc(OC)c1OCC#N [Example 114, 6-bromo-N-[5-(cyanomethoxy)-4,6-dimethoxy-pyrimidin-2-yl]-1H-pyrrolo[2,3-b]pyridine-3-sulfonamide] | 7.35
COc1nc(NS(=O)(=O)c2c[nH]c3c(N(C)C)c(Cl)ccc23)nc(OC)c1CC(F)F [Example 115, 6-chloro-N-[5-(2,2-difluoroethyl)-4,6-dimethoxy-pyrimidin-2-yl]-7-(dimethylamino)-1H-indole-3-sulfonamide] | 7.59
COc1nc(NS(=O)(=O)c2c[nH]c3c2ccc2cccnc23)nc(OC)c1OC(F)F [Example 116, N-[5-(difluoromethoxy)-4,6-dimethoxy-pyrimidin-2-yl]-1H-pyrrolo[3,2-h]quinoline-3-sulfonamide] | 7.59
COc1nc(NS(=O)(=O)c2c[nH]c3c2ccc2cccnc23)nc(OC)c1OCCF [Example 117, N-[5-(2-fluoroethoxy)-4,6-dimethoxy-pyrimidin-2-yl]-1H-pyrrolo[3,2-h]quinoline-3-sulfonamide] | 7.52
COc1nc(NS(=O)(=O)c2c[nH]c3nc(Cl)ccc23)nc(OC)c1C [Example 118, 6-chloro-N-(4,6-dimethoxy-5-methyl-pyrimidin-2-yl)-1H-pyrrolo[2,3-b]pyridine-3-sulfonamide] | 7.48
COc1nc(NS(=O)(=O)c2c[nH]c3nc(Cl)ccc23)ncc1OC(F)F [Example 119, 6-chloro-N-[5-(difluoromethoxy)-4-methoxy-pyrimidin-2-yl]-1H-pyrrolo[2,3-b]pyridine-3-sulfonamide] | 6.79
COc1nc(NS(=O)(=O)c2c[nH]c3nc(Cl)ccc23)nc(OC)c1CC(F)F [Example 120, 6-chloro-N-[5-(2,2-difluoroethyl)-4,6-dimethoxy-pyrimidin-2-yl]-1H-pyrrolo[2,3-b]pyridine-3-sulfonamide] | 7.40
COc1nc(NS(=O)(=O)c2c[nH]c3nc(Cl)ccc23)nc(OC)c1CCC(F)F [Example 121, 6-chloro-N-[5-(3,3-difluoropropyl)-4,6-dimethoxy-pyrimidin-2-yl]-1H-pyrrolo[2,3-b]pyridine-3-sulfonamide] | 7.80
COc1nc(NS(=O)(=O)c2c[nH]c3nc(Cl)ccc23)nc(OC)c1CCC#N [Example 122, 6-chloro-N-[5-(2-cyanoethyl)-4,6-dimethoxy-pyrimidin-2-yl]-1H-pyrrolo[2,3-b]pyridine-3-sulfonamide] | 7.44
COc1nc(NS(=O)(=O)c2c[nH]c3c(F)c(Cl)ccc23)ncc1CC(F)F [Example 124, 6-chloro-N-[5-(2,2-difluoroethyl)-4-methoxy-pyrimidin-2-yl]-7-fluoro-1H-indole-3-sulfonamide] | 7.47
COc1nc(NS(=O)(=O)c2c[nH]c3c(F)c(Cl)ccc23)nc(OC)c1OC(F)F [Example 125, 6-chloro-N-[5-(difluoromethoxy)-4,6-dimethoxy-pyrimidin-2-yl]-7-fluoro-1H-indole-3-sulfonamide] | 7.64
COc1nc(NS(=O)(=O)c2c[nH]c3c(F)c(Cl)ccc23)ncc1OC(F)F [Example 126, 6-chloro-N-[5-(difluoromethoxy)-4-methoxy-pyrimidin-2-yl]-7-fluoro-1H-indole-3-sulfonamide] | 7.09
COc1nc(NS(=O)(=O)c2c[nH]c3c(OC4CC4)c(Cl)ccc23)ncc1CC(F)F [Example 127, 6-chloro-7-(cyclopropoxy)-N-[5-(2,2-difluoroethyl)-4-methoxy-pyrimidin-2-yl]-1H-indole-3-sulfonamide] | 7.52
COc1nc(NS(=O)(=O)c2c[nH]c3c(Br)c(F)ccc23)ncc1CC(F)F [Example 128, 7-bromo-N-[5-(2,2-difluoroethyl)-4-methoxy-pyrimidin-2-yl]-6-fluoro-1H-indole-3-sulfonamide] | 6.35
COc1nc(NS(=O)(=O)c2c[nH]c3c(Br)cccc23)ncc1CC(F)F [Example 129, 7-bromo-N-[5-(2,2-difluoroethyl)-4-methoxy-pyrimidin-2-yl]-1H-indole-3-sulfonamide] | 6.02
COc1nc(NS(=O)(=O)c2c[nH]c3c(Cl)c(F)ccc23)ncc1CC(F)F [Example 130, 7-chloro-N-[5-(2,2-difluoroethyl)-4-methoxy-pyrimidin-2-yl]-6-fluoro-1H-indole-3-sulfonamide] | 6.41

Structure (SMILES) | pIC50
COc1nc(NS(=O)(=O)c2c[nH]c3nc(C)ccc23)nc(OC)c1OCCF [Example 131, N-[5-(2-fluoroethoxy)-4,6-dimethoxy-pyrimidin-2-yl]-6-methyl-1H-pyrrolo[2,3-b]pyridine-3-sulfonamide] | 6.94
COc1nc(NS(=O)(=O)c2c[nH]c3nc(C)ccc23)nc(OC)c1CC(F)F [Example 132, N-[5-(2,2-difluoroethyl)-4,6-dimethoxy-pyrimidin-2-yl]-6-methyl-1H-pyrrolo[2,3-b]pyridine-3-sulfonamide] | 7.41
COc1nc(NS(=O)(=O)c2c[nH]c3c(N4CCOCC4)c(Cl)ccc23)nc(OC)c1CC(F)F [Example 133, 6-chloro-N-[5-(2,2-difluoroethyl)-4,6-dimethoxy-pyrimidin-2-yl]-7-morpholino-1H-indole-3-sulfonamide] | 7.12
COc1nc(NS(=O)(=O)c2c[nH]c3c(Br)cccc23)nc(OC)c1CC(F)F [Example 134, 7-bromo-N-[5-(2,2-difluoroethyl)-4,6-dimethoxy-pyrimidin-2-yl]-1H-indole-3-sulfonamide] | 6.91
COc1nc(NS(=O)(=O)c2c[nH]c3cc(Cl)ccc23)ncc1OCC(F)F [Example 135, 6-chloro-N-[5-(2,2-difluoroethoxy)-4-methoxy-pyrimidin-2-yl]-1H-indole-3-sulfonamide] | 6.73
COc1nc(NS(=O)(=O)c2c[nH]c3cc(Cl)ccc23)ncc1C(C)(F)F [Example 136, 6-chloro-N-[5-(1,1-difluoroethyl)-4-methoxy-pyrimidin-2-yl]-1H-indole-3-sulfonamide] | 6.13
CCc1nc(NS(=O)(=O)c2c[nH]c3cc(Cl)ccc23)nc(OC)c1C [Example 137, 6-chloro-N-(4-ethyl-6-methoxy-5-methyl-pyrimidin-2-yl)-1H-indole-3-sulfonamide] | 6.35
COc1nc(NS(=O)(=O)c2c[nH]c3cc(Cl)ccc23)nc(C2CCOCC2)c1Br [Example 138, N-(5-bromo-4-methoxy-6-tetrahydropyran-4-yl-pyrimidin-2-yl)-6-chloro-1H-indole-3-sulfonamide] | 4.68
COc1nc(NS(=O)(=O)c2csc3nc(Cl)ccc23)ncc1CC(F)F [Example 139, 6-chloro-N-[5-(2,2-difluoroethyl)-4-methoxy-pyrimidin-2-yl]thieno[2,3-b]pyridine-3-sulfonamide] | 6.97
COc1nc(NS(=O)(=O)c2c[nH]c3cc(F)ccc23)ncc1CC(F)F [Example 140, N-[5-(2,2-difluoroethyl)-4-methoxy-pyrimidin-2-yl]-6-fluoro-1H-indole-3-sulfonamide] | 7.30
COc1nc(NS(=O)(=O)c2c[nH]c3c(Br)c(Cl)ccc23)ncc1OCCF [Example 141, 7-bromo-6-chloro-N-[5-(2-fluoroethoxy)-4-methoxy-pyrimidin-2-yl]-1H-indole-3-sulfonamide] | 7.85
COc1nc(NS(=O)(=O)c2c[nH]c3c(Br)c(Cl)ccc23)ncc1CC(F)F [Example 142, 7-bromo-6-chloro-N-[5-(2,2-difluoroethyl)-4-methoxy-pyrimidin-2-yl]-1H-indole-3-sulfonamide] | 7.54
COc1nc(NS(=O)(=O)c2c[nH]c3cc(Br)ccc23)ncc1OCC(F)F [Example 143, 6-bromo-N-[5-(2,2-difluoroethoxy)-4-methoxy-pyrimidin-2-yl]-1H-indole-3-sulfonamide] | 6.96
COc1nc(NS(=O)(=O)c2csc3nc(Br)ccc23)nc(OC)c1C [Example 144, 6-bromo-N-(4,6-dimethoxy-5-methyl-pyrimidin-2-yl)thieno[2,3-b]pyridine-3-sulfonamide] | 7.30
COc1nc(NS(=O)(=O)c2csc3nc(Br)ccc23)ncc1OCC(F)F [Example 145, 6-bromo-N-[5-(2,2-difluoroethoxy)-4-methoxy-pyrimidin-2-yl]thieno[2,3-b]pyridine-3-sulfonamide] | 6.82
COc1nc(NS(=O)(=O)c2csc3nc(Br)ccc23)ncc1OCCF [Example 146, 6-bromo-N-[5-(2-fluoroethoxy)-4-methoxy-pyrimidin-2-yl]thieno[2,3-b]pyridine-3-sulfonamide] | 7.05
COc1nc(NS(=O)(=O)c2csc3nc(Br)ccc23)ncc1OC(F)(F)CF [Example 147, 6-bromo-N-[4-methoxy-5-(1,1,2-trifluoroethoxy)pyrimidin-2-yl]thieno[2,3-b]pyridine-3-sulfonamide] | 6.98
COc1nc(NS(=O)(=O)c2csc3nc(Br)ccc23)ncc1CC(F)F [Example 148, 6-bromo-N-[5-(2,2-difluoroethyl)-4-methoxy-pyrimidin-2-yl]thieno[2,3-b]pyridine-3-sulfonamide] | 7.31
